Assay [1] addresses T1, 4-galactosyl-N-acetylglucosaminide 3-alpha-L-fucosyltransferase FUT6 (Homo sapiens) (UniProt P51993).
T1 sequence (whole entry): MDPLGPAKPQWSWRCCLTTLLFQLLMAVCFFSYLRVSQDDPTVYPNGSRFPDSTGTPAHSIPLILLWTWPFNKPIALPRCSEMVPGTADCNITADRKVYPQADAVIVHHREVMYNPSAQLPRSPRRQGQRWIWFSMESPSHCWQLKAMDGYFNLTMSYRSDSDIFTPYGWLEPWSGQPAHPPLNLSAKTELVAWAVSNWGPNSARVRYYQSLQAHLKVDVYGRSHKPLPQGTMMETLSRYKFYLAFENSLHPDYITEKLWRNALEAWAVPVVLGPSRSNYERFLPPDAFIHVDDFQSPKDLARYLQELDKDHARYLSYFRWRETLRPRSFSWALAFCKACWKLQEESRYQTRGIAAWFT
As to the kind of experiment: In vitro inhibition of Fucosyltransferase 6. Also on record: concentration or dose not given beside the values. To be noted: concentration not given here.

The target of assay [2] is T2, 3-galactosyl-N-acetylglucosaminide 4-alpha-L-fucosyltransferase FUT3 (Homo sapiens) (UniProt P21217).
T2 sequence (whole entry): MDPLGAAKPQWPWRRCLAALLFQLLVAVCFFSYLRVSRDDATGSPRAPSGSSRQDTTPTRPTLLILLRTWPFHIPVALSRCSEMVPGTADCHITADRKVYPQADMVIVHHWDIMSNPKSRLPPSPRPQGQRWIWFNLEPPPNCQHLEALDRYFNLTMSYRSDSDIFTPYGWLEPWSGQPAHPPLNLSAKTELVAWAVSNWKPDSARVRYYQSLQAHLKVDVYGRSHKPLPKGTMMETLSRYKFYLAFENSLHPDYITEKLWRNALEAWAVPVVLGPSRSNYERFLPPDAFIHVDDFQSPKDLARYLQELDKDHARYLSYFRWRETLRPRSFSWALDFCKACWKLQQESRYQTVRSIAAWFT
Briefly: In vitro inhibition of Fucosyltransferase 3. Also on record: concentration or dose not given beside the values. To be noted: concentration not given here.

Take `C[C@@H]1O[C@H](OP(=O)(O)OP(=O)(O)OC[C@H]2O[C@@H](n3cnc4c(O)ncnc43)[C@H](O)[C@@H]2O)[C@@H](O)[C@@H](O)[C@H]1O`: the inhibition – broadly, how much of the control response was suppressed – was 72% in assay [1] and 68% in assay [2].
For `C[C@@H]1O[C@H](OP(=O)(O)OP(=O)(O)OP(=O)(O)OC[C@H]2O[C@@H](n3cnc4c(O)nc(N)nc43)[C@H](O)[C@@H]2O)[C@H](O)[C@@H](O)[C@@H]1O`, the inhibition in assay [1] and in assay [2] was 0% throughout.
Consider `C[C@@H]1O[C@H](OP(=O)(O)OP(=O)(O)OC[C@H]2O[C@@H](n3cnc4c(O)nc(N)nc43)[C@H](O)[C@@H]2O)[C@H](O)[C@@H](O)[C@@H]1O`, for which the inhibition in assay [1] is 83%; in assay [2], 96%.
With `C[C@@H]1O[C@H](OP(=O)(O)OP(=O)(O)OC[C@H]2O[C@@H](n3cnc4c(N)ncnc43)[C@H](O)[C@@H]2O)[C@@H](O)[C@@H](O)[C@H]1O`, the inhibition in assay [1] was determined as 60%; in assay [2], 76%.
`C[C@@H]1O[C@H](OP(=O)(O)OP(=O)(O)OC[C@H]2O[C@@H](n3cnc4c(=O)[nH]c(=O)[nH]c43)[C@H](O)[C@@H]2O)[C@@H](O)[C@@H](O)[C@H]1O`: the inhibition in assay [1] is 62%; in assay [2], 73%.

The record behind these values is ChEMBL document CHEMBL1159135, “Enzymatic fucosylations with purine-diphosphate-fucoses (PDP-Fucoses)” (Bioorg Med Chem Lett, 1996).
